In PubChem BioAssay (NCI):
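Grown in 96-well plates, cells were treated for 48 hours with each compound at five concentrations. Insufficient inhibition: endpoint recorded as highest concentration tested. At the TGI there is no net growth.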

Experiments:
Assay in all cases: NCI anticancer screen, dose series, 48 h
TK-10 renal = system: TK-10 renal
SK-MEL-28 melanoma = system: SK-MEL-28 melanoma
HCT-116 colon = system: HCT-116 colon
NCI-H460 lung = system: NCI-H460 lung
HT29 colon = system: HT29 colon
HCT-15 colon = system: HCT-15 colon
ACHN renal = system: ACHN renal
CCRF-CEM leukemia = system: CCRF-CEM leukemia
NCI-H226 lung = system: NCI-H226 lung
SK-MEL-5 melanoma = system: SK-MEL-5 melanoma
UACC-62 melanoma = system: UACC-62 melanoma
DMS 114 small cell lung = system: DMS 114 small cell lung
DLD-1 colon = system: DLD-1 colon
HL-60(TB) leukemia = system: HL-60(TB) leukemia
SF-295 CNS = system: SF-295 CNS
SNB-19 CNS = system: SNB-19 CNS
A549 NSCLC = system: A549 NSCLC
OVCAR-5 ovarian = system: OVCAR-5 ovarian
OVCAR-3 ovarian = system: OVCAR-3 ovarian
KM20L2 colon = system: KM20L2 colon
HOP-92 NSCLC = system: HOP-92 NSCLC
EKVX NSCLC = system: EKVX NSCLC
SNB-75 CNS = system: SNB-75 CNS
UACC-257 melanoma = system: UACC-257 melanoma
M19-MEL melanoma = system: M19-MEL melanoma
SK-MEL-2 melanoma = system: SK-MEL-2 melanoma
K-562 leukemia = system: K-562 leukemia
CAKI-1 renal = system: CAKI-1 renal
SW-620 colon = system: SW-620 colon
HOP-18 NSCLC = system: HOP-18 NSCLC
MOLT-4 leukemia = system: MOLT-4 leukemia
DMS 273 small cell lung = system: DMS 273 small cell lung
MALME-3M melanoma = system: MALME-3M melanoma
LXFL 529 NSCLC = system: LXFL 529 NSCLC
HCC-2998 colon = system: HCC-2998 colon
IGROV1 ovarian = system: IGROV1 ovarian
NCI-H23 lung = system: NCI-H23 lung
RXF-631 renal = system: RXF-631 renal
M14 melanoma = system: M14 melanoma
786-0 renal = system: 786-0 renal
SF-268 CNS = system: SF-268 CNS
A498 renal = system: A498 renal
LOX IMVI melanoma = system: LOX IMVI melanoma
KM12 colon = system: KM12 colon
OVCAR-4 ovarian = system: OVCAR-4 ovarian
SF-539 CNS = system: SF-539 CNS
COLO 205 colon = system: COLO 205 colon
RXF 393 renal = system: RXF 393 renal
SK-OV-3 ovarian = system: SK-OV-3 ovarian
OVCAR-8 ovarian = system: OVCAR-8 ovarian
RPMI-8226 leukemia = system: RPMI-8226 leukemia
SN12C renal = system: SN12C renal
UO-31 renal = system: UO-31 renal
SR leukemia = system: SR leukemia
HOP-62 NSCLC = system: HOP-62 NSCLC
U251 CNS = system: U251 CNS
NCI-H522 lung = system: NCI-H522 lung
SNB-78 CNS = system: SNB-78 CNS
XF 498 CNS = system: XF 498 CNS

## N/N=C(/Cc1ccccc1)NNO
TK-10 renal
  TGI: > 100 µM
SK-MEL-28 melanoma
  TGI: > 100 µM
HCT-116 colon
  TGI: > 100 µM
NCI-H460 lung
  TGI: > 100 µM
HT29 colon
  TGI: > 100 µM
HCT-15 colon
  TGI: > 100 µM
ACHN renal
  TGI: > 100 µM
CCRF-CEM leukemia
  TGI: > 100 µM
NCI-H226 lung
  TGI: > 100 µM
SK-MEL-5 melanoma
  TGI: > 100 µM
UACC-62 melanoma
  TGI: > 100 µM
DMS 114 small cell lung
  TGI: > 100 µM
DLD-1 colon
  TGI: > 100 µM
HL-60(TB) leukemia
  TGI: > 100 µM
SF-295 CNS
  TGI: > 100 µM
SNB-19 CNS
  TGI: > 100 µM
A549 NSCLC
  TGI: > 100 µM
OVCAR-5 ovarian
  TGI: > 100 µM
OVCAR-3 ovarian
  TGI: > 100 µM
KM20L2 colon
  TGI: > 100 µM
HOP-92 NSCLC
  TGI: > 100 µM
EKVX NSCLC
  TGI: > 100 µM
SNB-75 CNS
  TGI: > 100 µM
UACC-257 melanoma
  TGI: > 100 µM
M19-MEL melanoma
  TGI: > 100 µM
SK-MEL-2 melanoma
  TGI: > 100 µM
K-562 leukemia
  TGI: > 100 µM
CAKI-1 renal
  TGI: > 100 µM
SW-620 colon
  TGI: > 100 µM
HOP-18 NSCLC
  TGI: > 100 µM
MOLT-4 leukemia
  TGI: > 100 µM
DMS 273 small cell lung
  TGI: > 100 µM
MALME-3M melanoma
  TGI: > 100 µM
LXFL 529 NSCLC
  TGI: > 100 µM
HCC-2998 colon
  TGI: > 100 µM
IGROV1 ovarian
  TGI: > 100 µM
NCI-H23 lung
  TGI: > 100 µM
RXF-631 renal
  TGI: > 100 µM
M14 melanoma
  TGI: > 100 µM
786-0 renal
  TGI: > 100 µM
SF-268 CNS
  TGI: > 100 µM
A498 renal
  TGI: > 100 µM
LOX IMVI melanoma
  TGI: > 100 µM
KM12 colon
  TGI: 34.9 µM
OVCAR-4 ovarian
  TGI: > 100 µM
SF-539 CNS
  TGI: > 100 µM
COLO 205 colon
  TGI: > 100 µM
RXF 393 renal
  TGI: > 100 µM

## O=C1NC(O)n2c(=O)[nH]c(=O)n21 (centres undefined)
TK-10 renal
  TGI: > 100 µM
SK-MEL-28 melanoma
  TGI: > 100 µM
HCT-116 colon
  TGI: > 100 µM
NCI-H460 lung
  TGI: > 100 µM
HT29 colon
  TGI: > 100 µM
HCT-15 colon
  TGI: > 100 µM
SK-OV-3 ovarian
  TGI: > 100 µM
ACHN renal
  TGI: > 100 µM
CCRF-CEM leukemia
  TGI: > 100 µM
NCI-H226 lung
  TGI: > 100 µM
SK-MEL-5 melanoma
  TGI: > 100 µM
UACC-62 melanoma
  TGI: > 100 µM
OVCAR-8 ovarian
  TGI: > 100 µM
DLD-1 colon
  TGI: > 100 µM
HL-60(TB) leukemia
  TGI: > 100 µM
RPMI-8226 leukemia
  TGI: > 100 µM
SF-295 CNS
  TGI: > 100 µM
SNB-19 CNS
  TGI: > 100 µM
A549 NSCLC
  TGI: > 100 µM
OVCAR-5 ovarian
  TGI: > 100 µM
OVCAR-3 ovarian
  TGI: > 100 µM
KM20L2 colon
  TGI: > 100 µM
SN12C renal
  TGI: > 100 µM
UO-31 renal
  TGI: > 100 µM
HOP-92 NSCLC
  TGI: > 100 µM
SR leukemia
  TGI: > 100 µM
EKVX NSCLC
  TGI: > 100 µM
SNB-75 CNS
  TGI: > 100 µM
UACC-257 melanoma
  TGI: > 100 µM
HOP-62 NSCLC
  TGI: > 100 µM
U251 CNS
  TGI: > 100 µM
M19-MEL melanoma
  TGI: > 100 µM
SK-MEL-2 melanoma
  TGI: > 100 µM
K-562 leukemia
  TGI: > 100 µM
CAKI-1 renal
  TGI: > 100 µM
SW-620 colon
  TGI: > 100 µM
HOP-18 NSCLC
  TGI: > 100 µM
MOLT-4 leukemia
  TGI: > 100 µM
NCI-H522 lung
  TGI: > 100 µM
DMS 273 small cell lung
  TGI: > 100 µM
LXFL 529 NSCLC
  TGI: > 100 µM
HCC-2998 colon
  TGI: > 100 µM
IGROV1 ovarian
  TGI: > 100 µM
NCI-H23 lung
  TGI: > 100 µM
RXF-631 renal
  TGI: > 100 µM
M14 melanoma
  TGI: > 100 µM
SNB-78 CNS
  TGI: > 100 µM
786-0 renal
  TGI: > 100 µM
SF-268 CNS
  TGI: > 100 µM
XF 498 CNS
  TGI: > 100 µM
LOX IMVI melanoma
  TGI: > 100 µM
KM12 colon
  TGI: > 100 µM
OVCAR-4 ovarian
  TGI: > 100 µM
SF-539 CNS
  TGI: > 100 µM
COLO 205 colon
  TGI: > 100 µM
RXF 393 renal
  TGI: > 100 µM
